Bridge positions count the residues as written; N and C are the ends. Square brackets hold non-standard residues; d marks the D form. Peptide text beside a SMILES is read from it. Trp(1-Me) = Cn1cc(C[C@H](N)C(=O)O)c2ccccc21; NMeI = CC[C@H](C)[C@H](NC)C(=O)O; Sar = CNCC(=O)O
Experiments:
[1] = test system: pulmonary vascular remodeling markers (α-SMA, PCNA); experiment: Lung α-SMA immunohistochemistry and PCNA western blot in PAH rats; format: in vivo, rat; details: MCT + CP40-KK vs MCT group
Method: (§1) In the current study, two animal experiments were conducted successively. 30 rats were randomly divided into two groups (control group and MCT group, n = 15 per group) in the first experiment. MCT group rats received a single intraperitoneally injection of MCT (40 mg/kg) on day 1 to induce PAH while control group rats received an equivoluminal saline injection intraperitoneally. For the second animal experiment, the rats were assigned into four groups (control group, MCT group, CP40-KK group, and MCT + CP40-KK group, n = 15 per group). […]
After hemodynamic measurements, the lungs were perfused with cold phosphate-buffered saline (PBS) and fixed in 4% formaldehyde for 24 h. […] Immunolabels were detected with 3, 3-Diaminobenzidine (DAB), after which the nuclei were counterstained with hematoxylin. […] For quantification analysis, the mean integrated optical density (IOD) for immunohistochemistry was determined using Image J software (National Institutes of Health, Bethesda, MD).
(§2) Proteins were collected from the fresh frozen-rat lung tissues using RIPA lysis buffer. Protein concentration was quantified using a BCA reagent. […] To compare and quantify levels of proteins, the density of each band was measured using Image J software. Equal loading for total cell or tissue lysates was determined by β-Actin western blot.

C3 activation (C3a) = experiment: Plasma C3a western blot in PAH rats; format: in vivo; details: western blot of rat plasma; n = 6 per group
Method: as §1, with “group). The control group was given the same volume of saline subcutaneously while the CP40-KK group rats only received CP40-KK (2 mg/kg) by subcutaneous injection from day 15 to day 28 continuously.” for “group).”
[…] Protein concentration was quantified using a BCA reagent. […] To compare and quantify levels of proteins, the density of each band was measured using Image J software. Equal loading for total cell or tissue lysates was determined by β-Actin western blot.
[…] Protein concentration was quantified using a BCA reagent. […] To compare and quantify levels of proteins, the density of each band was measured using Image J software. Equal loading for total cell or tissue lysates was determined by β-Actin western blot^3,4.

[2] = cited from earlier work
Source text: The selective C3 inhibitor CP40 has been found therapeutically effective in various diseases, but has yet not been tested in the PAH model. In the current study, we applied the newly identified CP40 analog, CP40-KK, with two more lysine attached to the C terminus, in the MCT-induced PAH rat model.

NLRP3 inflammasome = experiment: Lung homogenate western blot of NF-κB p65 / NLRP3 inflammasome pathway in PAH rats; format: in vivo, rat; details: lung homogenates, MCT + CP40-KK vs MCT, n = 6 per group
Method: In the current study, two animal experiments were conducted successively. 30 rats were randomly divided into two groups (control group and MCT group, n = 15 per group) in the first experiment. MCT group rats received a single intraperitoneally injection of MCT (40 mg/kg) on day 1 to induce PAH while control group rats received an equivoluminal saline injection intraperitoneally. For the second animal experiment, the rats were assigned into four groups (control group, MCT group, CP40-KK group, and MCT + CP40-KK group, n = 15 per group). The control group was given the same volume of saline subcutaneously while the CP40-KK group rats only received CP40-KK (2 mg/kg) by subcutaneous injection from day 15 to day 28 continuously. The rats in the MCT group and MCT + CP40-KK group were received a single intraperitoneally injection of MCT (40 mg/kg) on day 1 and subcutaneously injected with either an equal volume of saline or CP40-KK (2 mg/kg) at day 15 to day 28 continuously. The dose selection of MCT and CP40-KK in our study was established based on previous studies.
Proteins were collected from the fresh frozen-rat lung tissues using RIPA lysis buffer. Protein concentration was quantified using a BCA reagent. Equal amounts of protein were electrophoretically separated on 10% SDS polyacrylamide gel, transferred to PVDF membranes, and probed with desired primary antibodies overnight at 4 °C. Membranes were then washed with TBST and incubated with anti-mouse IgG (1:5000) or anti-rabbit IgG (1:5000) horseradish peroxidase conjugated antibodies as indicated. […] To compare and quantify levels of proteins, the density of each band was measured using Image J software. Equal loading for total cell or tissue lysates was determined by β-Actin western blot.
as §2, with “blot^3,4.” for “blot.”

For `CC[C@H](C)[C@H](NC(=O)[C@H](N)Cc1ccc(O)cc1)C(=O)N[C@H]1CSSC[C@@H](C(=O)N(C)[C@H](C(=O)N[C@@H](CCCCN)C(=O)N[C@@H](CCCCN)C(N)=O)[C@@H](C)CC)NC(=O)[C@H](CCCNC(=N)N)NC(=O)[C@H](Cc2c[nH]cn2)NC(=O)CN(C)C(=O)[C@H](Cc2c[nH]c3ccccc23)NC(=O)[C@H](CC(=O)O)NC(=O)[C@H](CCC(N)=O)NC(=O)[C@H](Cc2cn(C)c3ccccc23)NC(=O)[C@H](C(C)C)NC1=O` [CP40-KK] (H-[dY]ICV[Trp(1-Me)]QDW[Sar]HRC[NMeI]KK-NH2; disulfide 3-12 (inferred)), the “expression of α-SMA in walls of small pulmonary arteries” value ([1]; immunohistochemistry) was “reduced significantly”, the “PCNA expression in lung homogenates” value ([1]; western blot, n = 6 per group) was “decreased” and the “plasma C3a (C3 activation ex vivo)” value (C3 activation (C3a)) was “significantly inhibit the C3 activation”. The “improvement in solubility in comparison with parental peptide CP40” value ([2]; at physiological pH) was > 200 fold, the “apparent clearance compared to CP40 (decreased)” value ([2]; non-human primates) was ~2.6 fold and the “maximum concentration compared to CP40 (higher)” value ([2]; non-human primates) was “twofold”. The “terminal half-life compared to CP40 (higher)” value ([2]; non-human primates) was “fivefold”, the “NF-κB subunit p65 phosphorylation” value (NLRP3 inflammasome) was “significantly block” and the NLRP3 inflammasome activation (NLRP3 inflammasome) was “significantly block”. The “production of proinflammatory cytokines IL-1β and IL-18” value (NLRP3 inflammasome) was “reduced”.

Source: article PMC10870435, “A novel complement C3 inhibitor CP40-KK protects against experimental pulmonary arterial hypertension via an inflammasome NLRP3 associated pathway” (Journal of Translational Medicine, 2024)
